Laboratory results as given in US11697648B2, “Fused pyrimidine pyridinone compounds as JAK inhibitors” (THERAVANCE BIOPHARMA R&D IP, LLC, priority 2019, dated 2023).

How the values were obtained:
JAK3 = JAK3 (Homo sapiens (Human), UniProt P52333); test: Biochemical JAK3 kinase assay (LanthaScreen)
Method in brief: (§1)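 GST-JAK + GFP-STAT1 peptide, HEPES pH 7.5/MgCl2/EGTA/Brij-35 buffer; cpd preincubation 1 h RT; ATP start, 1 h RT; stop with 10 mM EDTA + 2 nM Tb-anti-pSTAT1; TR-FRET 520/495. 4-parameter IC50 → pKi (Cheng-Prusoff).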

Tyk2 = Tyk2 (Homo sapiens (Human), UniProt P29597); test: Biochemical Tyk2 kinase assay (LanthaScreen)
Method in brief: as §1

JAK2 = JAK2 (Homo sapiens (Human), UniProt O60674); test: Biochemical JAK2 kinase assay (LanthaScreen)
Method in brief: as §1

JAK1 = JAK1 (Homo sapiens (Human), UniProt P23458); test: Biochemical JAK1 kinase assay (LanthaScreen)
Method in brief: as §1

[1] = system: IL-2 stimulated STAT5 phosphorylation in Tall-1 human T cell line (JAK3); test: Cellular JAK3 potency assay: inhibition of IL-2 stimulated pSTAT5 in Tall-1 T cells; type: cell-based
Method in brief: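 AlphaLISA SureFire Ultra measures STAT5 Tyr694/699 phosphorylation in lysed Tall-1 human T cells. Cells were exposed to compound for 1 h at 37 °C before a 30 min IL-2 challenge (300 ng/ml final). Values are pIC50 means with standard deviation from signal-versus-concentration curves.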

[2] = selectivity JAK3 over JAK1, difference of pKi
[3] = IL-2 stimulated pSTAT5, Tall-1 T cells
[4] = selectivity, difference of pKi values
[5] = IL-2 stimulated pSTAT5 in Tall-1 T cells

Chain of JAK1 (P23458 whole entry): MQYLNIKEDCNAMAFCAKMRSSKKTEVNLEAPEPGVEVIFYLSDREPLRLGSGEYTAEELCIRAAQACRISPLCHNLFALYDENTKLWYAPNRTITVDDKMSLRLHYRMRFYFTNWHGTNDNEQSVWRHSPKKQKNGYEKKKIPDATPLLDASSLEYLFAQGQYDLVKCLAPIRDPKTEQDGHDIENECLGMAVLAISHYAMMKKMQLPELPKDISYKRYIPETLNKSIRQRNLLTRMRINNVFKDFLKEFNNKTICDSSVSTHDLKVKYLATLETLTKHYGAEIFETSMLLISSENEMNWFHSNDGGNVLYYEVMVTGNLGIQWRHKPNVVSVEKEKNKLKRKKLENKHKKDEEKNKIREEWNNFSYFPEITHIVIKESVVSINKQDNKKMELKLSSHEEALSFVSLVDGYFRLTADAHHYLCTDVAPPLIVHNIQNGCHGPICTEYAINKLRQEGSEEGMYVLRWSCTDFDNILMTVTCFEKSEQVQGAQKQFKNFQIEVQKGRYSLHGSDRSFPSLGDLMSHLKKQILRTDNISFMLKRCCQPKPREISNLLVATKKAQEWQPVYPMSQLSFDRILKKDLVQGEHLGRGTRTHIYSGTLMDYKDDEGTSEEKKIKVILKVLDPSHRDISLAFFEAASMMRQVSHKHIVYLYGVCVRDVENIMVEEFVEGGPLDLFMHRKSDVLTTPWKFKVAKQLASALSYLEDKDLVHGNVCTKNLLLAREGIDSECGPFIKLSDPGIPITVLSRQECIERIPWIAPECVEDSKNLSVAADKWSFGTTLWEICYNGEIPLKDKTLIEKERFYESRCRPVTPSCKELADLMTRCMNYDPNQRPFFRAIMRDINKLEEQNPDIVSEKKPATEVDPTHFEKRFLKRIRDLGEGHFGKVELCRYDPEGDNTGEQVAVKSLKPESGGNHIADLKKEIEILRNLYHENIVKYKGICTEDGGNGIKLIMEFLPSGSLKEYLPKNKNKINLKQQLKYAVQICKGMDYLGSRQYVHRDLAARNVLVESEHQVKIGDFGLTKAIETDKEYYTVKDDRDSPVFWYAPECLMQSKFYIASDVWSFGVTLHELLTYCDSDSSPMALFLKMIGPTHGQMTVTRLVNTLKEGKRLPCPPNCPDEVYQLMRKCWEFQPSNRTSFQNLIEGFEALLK
Chain of JAK3 (P52333 whole entry): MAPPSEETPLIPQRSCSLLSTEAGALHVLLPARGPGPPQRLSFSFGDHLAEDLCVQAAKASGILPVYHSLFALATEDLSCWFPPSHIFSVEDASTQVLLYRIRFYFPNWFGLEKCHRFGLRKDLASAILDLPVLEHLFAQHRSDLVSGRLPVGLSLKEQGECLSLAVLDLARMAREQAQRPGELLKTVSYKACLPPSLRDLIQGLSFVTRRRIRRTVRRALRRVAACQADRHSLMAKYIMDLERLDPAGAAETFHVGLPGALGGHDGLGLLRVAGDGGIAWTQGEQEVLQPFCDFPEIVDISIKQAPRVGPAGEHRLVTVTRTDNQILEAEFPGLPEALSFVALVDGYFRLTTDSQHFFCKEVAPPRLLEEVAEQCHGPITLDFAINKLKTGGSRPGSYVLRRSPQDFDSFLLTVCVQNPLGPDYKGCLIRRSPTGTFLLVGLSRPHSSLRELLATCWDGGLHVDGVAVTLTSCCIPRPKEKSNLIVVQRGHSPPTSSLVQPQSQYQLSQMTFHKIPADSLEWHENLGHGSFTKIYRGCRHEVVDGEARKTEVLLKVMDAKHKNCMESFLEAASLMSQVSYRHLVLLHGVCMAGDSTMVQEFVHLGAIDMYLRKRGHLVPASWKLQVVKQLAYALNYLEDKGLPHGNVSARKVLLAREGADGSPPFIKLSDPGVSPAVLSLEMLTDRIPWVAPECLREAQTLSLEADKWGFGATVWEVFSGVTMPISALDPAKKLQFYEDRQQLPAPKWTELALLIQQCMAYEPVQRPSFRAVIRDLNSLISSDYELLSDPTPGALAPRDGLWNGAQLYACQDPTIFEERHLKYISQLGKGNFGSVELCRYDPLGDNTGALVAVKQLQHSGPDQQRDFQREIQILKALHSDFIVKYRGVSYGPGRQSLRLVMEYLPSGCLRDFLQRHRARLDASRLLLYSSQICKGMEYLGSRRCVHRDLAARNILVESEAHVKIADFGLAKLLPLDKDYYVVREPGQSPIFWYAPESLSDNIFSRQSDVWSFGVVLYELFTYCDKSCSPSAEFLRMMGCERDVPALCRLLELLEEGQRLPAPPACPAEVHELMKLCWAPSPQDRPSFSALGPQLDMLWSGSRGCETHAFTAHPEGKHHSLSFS
Chain of JAK2 (O60674 whole entry): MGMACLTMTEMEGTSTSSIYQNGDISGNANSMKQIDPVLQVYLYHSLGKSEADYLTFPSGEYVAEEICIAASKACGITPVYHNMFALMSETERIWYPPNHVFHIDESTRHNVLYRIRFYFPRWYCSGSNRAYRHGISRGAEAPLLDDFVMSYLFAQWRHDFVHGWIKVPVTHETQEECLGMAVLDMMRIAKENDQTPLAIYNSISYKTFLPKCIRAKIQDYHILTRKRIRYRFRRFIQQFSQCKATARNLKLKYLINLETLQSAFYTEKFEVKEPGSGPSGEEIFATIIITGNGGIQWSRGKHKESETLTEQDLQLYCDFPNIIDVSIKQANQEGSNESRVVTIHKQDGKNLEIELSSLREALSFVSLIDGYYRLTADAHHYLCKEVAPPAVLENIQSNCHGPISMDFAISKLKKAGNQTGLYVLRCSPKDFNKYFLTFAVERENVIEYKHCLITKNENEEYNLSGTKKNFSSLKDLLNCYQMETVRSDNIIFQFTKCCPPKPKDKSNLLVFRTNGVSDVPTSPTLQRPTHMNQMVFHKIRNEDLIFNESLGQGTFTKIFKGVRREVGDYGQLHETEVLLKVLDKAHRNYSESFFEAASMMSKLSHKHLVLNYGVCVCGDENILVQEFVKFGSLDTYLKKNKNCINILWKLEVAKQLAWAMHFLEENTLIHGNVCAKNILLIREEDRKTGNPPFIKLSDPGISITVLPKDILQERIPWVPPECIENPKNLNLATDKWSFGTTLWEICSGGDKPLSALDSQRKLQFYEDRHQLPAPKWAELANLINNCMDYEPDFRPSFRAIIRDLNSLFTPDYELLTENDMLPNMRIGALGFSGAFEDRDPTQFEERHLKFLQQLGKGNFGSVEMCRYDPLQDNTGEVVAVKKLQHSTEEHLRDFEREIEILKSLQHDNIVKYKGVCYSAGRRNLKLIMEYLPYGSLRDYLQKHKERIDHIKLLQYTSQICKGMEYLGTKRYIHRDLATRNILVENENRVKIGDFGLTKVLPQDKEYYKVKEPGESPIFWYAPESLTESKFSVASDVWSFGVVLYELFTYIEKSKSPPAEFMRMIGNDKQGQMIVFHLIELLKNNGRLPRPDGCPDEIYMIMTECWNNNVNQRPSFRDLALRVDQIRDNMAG
Chain of Tyk2 (P29597 whole entry): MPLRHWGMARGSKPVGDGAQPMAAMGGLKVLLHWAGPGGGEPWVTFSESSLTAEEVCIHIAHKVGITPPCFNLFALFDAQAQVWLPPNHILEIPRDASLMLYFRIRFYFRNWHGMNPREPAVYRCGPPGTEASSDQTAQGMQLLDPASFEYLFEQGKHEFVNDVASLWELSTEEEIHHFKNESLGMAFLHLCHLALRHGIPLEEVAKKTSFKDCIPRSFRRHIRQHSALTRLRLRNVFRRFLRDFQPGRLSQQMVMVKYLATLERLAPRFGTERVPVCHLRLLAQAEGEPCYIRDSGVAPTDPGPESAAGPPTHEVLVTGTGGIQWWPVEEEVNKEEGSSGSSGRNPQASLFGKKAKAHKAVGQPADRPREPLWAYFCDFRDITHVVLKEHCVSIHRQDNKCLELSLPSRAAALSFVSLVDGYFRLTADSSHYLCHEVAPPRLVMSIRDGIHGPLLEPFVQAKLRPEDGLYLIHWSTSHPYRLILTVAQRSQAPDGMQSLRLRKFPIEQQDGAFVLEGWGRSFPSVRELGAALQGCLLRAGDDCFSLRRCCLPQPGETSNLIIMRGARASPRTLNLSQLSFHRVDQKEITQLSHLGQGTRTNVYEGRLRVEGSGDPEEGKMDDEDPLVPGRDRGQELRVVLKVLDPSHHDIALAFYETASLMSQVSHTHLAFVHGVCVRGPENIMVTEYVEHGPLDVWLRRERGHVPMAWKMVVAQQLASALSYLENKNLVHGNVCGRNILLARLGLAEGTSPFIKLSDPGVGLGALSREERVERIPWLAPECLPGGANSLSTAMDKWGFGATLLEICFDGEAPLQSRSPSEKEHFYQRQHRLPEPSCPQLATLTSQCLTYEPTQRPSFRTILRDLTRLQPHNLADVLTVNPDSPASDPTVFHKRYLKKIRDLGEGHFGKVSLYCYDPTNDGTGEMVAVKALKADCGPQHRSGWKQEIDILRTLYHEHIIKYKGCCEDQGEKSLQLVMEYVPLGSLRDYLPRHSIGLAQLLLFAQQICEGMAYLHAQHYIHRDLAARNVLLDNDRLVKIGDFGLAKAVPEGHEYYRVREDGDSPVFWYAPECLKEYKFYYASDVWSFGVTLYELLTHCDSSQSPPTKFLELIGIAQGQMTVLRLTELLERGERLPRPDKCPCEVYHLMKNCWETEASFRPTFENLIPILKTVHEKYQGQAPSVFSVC

SMILES	JAK 3 (pKi) (JAK3)	JAK3 (pKi)-JAK1 (pKi) (JAK3; [2])	Tyk 2 (pKi) (Tyk2)	JAK 2 (pKi) (JAK2)	JAK 1 (pKi) (JAK1)	Tall-1 (pIC50) [1, 3]	JAK3 (pKi)-JAK1 (pKi) (JAK3; [4])	Tall-1 (pIC50) [1, 5]
C=CC(=O)N1CCN(CCn2c(=O)ccc3cnc(Nc4cnn(C5CCN(C)CC5)c4)nc32)[C@@H](C)C1 [Example 231]	B (B represents pKi value between 9 and 10 (Ki between 1 nM and 0.1 nM))	A (A represents a value of 3 or above)	E (E represents a pKi value of 7 or below (Ki of 100 nM or above))	E (E represents a pKi value of 7 or below (Ki of 100 nM or above))	E (E represents a pKi value of 7 or below (Ki of 100 nM or above))	B (B represents a pC50 value between 6.7 (included) and 7.5 (IC50 between 200 nM and 32 nM))	–	–
C=CC(=O)N1CCN(CCn2c(=O)ccc3cnc(Nc4cnn(CC(F)F)c4)nc32)[C@@H](C)C1 [Example 232]	A (A represents a pKi value≥10 (Ki≤0.1 nM))	A (A represents a value of 3 or above)	E (E represents a pKi value of 7 or below (Ki of 100 nM or above))	E (E represents a pKi value of 7 or below (Ki of 100 nM or above))	E (E represents a pKi value of 7 or below (Ki of 100 nM or above))	B (B represents a pC50 value between 6.7 (included) and 7.5 (IC50 between 200 nM and 32 nM))	–	–
C=CC(=O)N1CCN(CCn2c(=O)ccc3cnc(Nc4cnn(C(C)(C)COC)c4)nc32)[C@@H](C)C1 [Example 233]	B (B represents pKi value between 9 and 10 (Ki between 1 nM and 0.1 nM))	A (A represents a value of 3 or above)	E (E represents a pKi value of 7 or below (Ki of 100 nM or above))	E (E represents a pKi value of 7 or below (Ki of 100 nM or above))	E (E represents a pKi value of 7 or below (Ki of 100 nM or above))	B (B represents a pC50 value between 6.7 (included) and 7.5 (IC50 between 200 nM and 32 nM))	–	–
C=CC(=O)N1CC(C(C)Cn2c(=O)ccc3cnc(Nc4ccc(N5CCN(C)CC5)cc4)nc32)C1 (stereo not drawn) [Example 234]	B (B represents pKi value between 9 and 10 (Ki between 1 nM and 0.1 nM))	A (A represents a value of 3 or above)	E (E represents a pKi value of 7 or below (Ki of 100 nM or above))	E (E represents a pKi value of 7 or below (Ki of 100 nM or above))	E (E represents a pKi value of 7 or below (Ki of 100 nM or above))	B (B represents a pC50 value between 6.7 (included) and 7.5 (IC50 between 200 nM and 32 nM))	–	–
C=CC(=O)N1CCN(CCn2c(=O)ccc3cnc(Nc4cnn(-c5ccccc5)c4)nc32)[C@@H](C)C1 [Example 235]	B (B represents pKi value between 9 and 10 (Ki between 1 nM and 0.1 nM))	A (A represents a value of 3 or above)	E (E represents a pKi value of 7 or below (Ki of 100 nM or above))	E (E represents a pKi value of 7 or below (Ki of 100 nM or above))	E (E represents a pKi value of 7 or below (Ki of 100 nM or above))	B (B represents a pC50 value between 6.7 (included) and 7.5 (IC50 between 200 nM and 32 nM))	–	–
C=CC(=O)N1CCN(CCn2c(=O)ccc3cnc(Nc4cnn(CCF)c4)nc32)[C@@H](C)C1 [Example 236]	B (B represents pKi value between 9 and 10 (Ki between 1 nM and 0.1 nM))	A (A represents a value of 3 or above)	E (E represents a pKi value of 7 or below (Ki of 100 nM or above))	E (E represents a pKi value of 7 or below (Ki of 100 nM or above))	E (E represents a pKi value of 7 or below (Ki of 100 nM or above))	B (B represents a pC50 value between 6.7 (included) and 7.5 (IC50 between 200 nM and 32 nM))	–	–
C=CC(=O)N1CCN(CCn2c(=O)ccc3cnc(Nc4cnn(Cc5ccccc5)c4)nc32)[C@@H](C)C1 [Example 237]	B (B represents pKi value between 9 and 10 (Ki between 1 nM and 0.1 nM))	–	E (E represents a pKi value of 7 or below (Ki of 100 nM or above))	E (E represents a pKi value of 7 or below (Ki of 100 nM or above))	E (E represents a pKi value of 7 or below (Ki of 100 nM or above))	–	A (A represents a value of 3 or above)	B (B represents a pC50 value between 6.7 (included) and 7.5 (IC50 between 200 nM and 32 nM))
C=CC(=O)N1CCN(CCn2c(=O)ccc3cnc(Nc4cnn(CCOC(F)F)c4)nc32)[C@@H](C)C1 [Example 238]	B (B represents pKi value between 9 and 10 (Ki between 1 nM and 0.1 nM))	–	E (E represents a pKi value of 7 or below (Ki of 100 nM or above))	E (E represents a pKi value of 7 or below (Ki of 100 nM or above))	E (E represents a pKi value of 7 or below (Ki of 100 nM or above))	–	A (A represents a value of 3 or above)	C (C represents a pIC50 value between 6 and 6.7 (IC50 between 1 μM and 200 nM))
C=CC(=O)N1CC(CCn2c(=O)ccc3cnc(Nc4cnn(Cc5ccccc5)c4)nc32)C1 [Example 239]	B (B represents pKi value between 9 and 10 (Ki between 1 nM and 0.1 nM))	–	E (E represents a pKi value of 7 or below (Ki of 100 nM or above))	E (E represents a pKi value of 7 or below (Ki of 100 nM or above))	E (E represents a pKi value of 7 or below (Ki of 100 nM or above))	–	A (A represents a value of 3 or above)	B (B represents a pC50 value between 6.7 (included) and 7.5 (IC50 between 200 nM and 32 nM))
C=CC(=O)N1CC(CCn2c(=O)ccc3cnc(Nc4ccc(N5CCN(C)C(C)(C)C5)cc4)nc32)C1 [Example 240]	A (A represents a pKi value≥10 (Ki≤0.1 nM))	–	E (E represents a pKi value of 7 or below (Ki of 100 nM or above))	E (E represents a pKi value of 7 or below (Ki of 100 nM or above))	E (E represents a pKi value of 7 or below (Ki of 100 nM or above))	–	A (A represents a value of 3 or above)	A (A represents a pIC50 value≥7.5 (IC50≤32 nM))
C=CC(=O)N1CC(CCn2c(=O)ccc3cnc(Nc4cnn(CC)c4)nc32)C1 [Example 241]	B (B represents pKi value between 9 and 10 (Ki between 1 nM and 0.1 nM))	–	E (E represents a pKi value of 7 or below (Ki of 100 nM or above))	E (E represents a pKi value of 7 or below (Ki of 100 nM or above))	E (E represents a pKi value of 7 or below (Ki of 100 nM or above))	–	A (A represents a value of 3 or above)	B (B represents a pC50 value between 6.7 (included) and 7.5 (IC50 between 200 nM and 32 nM))
C=CC(=O)N1CCN(CCn2c(=O)ccc3cnc(Nc4cnn(CC)c4)nc32)[C@@H](CC)C1 [Example 242]	B (B represents pKi value between 9 and 10 (Ki between 1 nM and 0.1 nM))	–	E (E represents a pKi value of 7 or below (Ki of 100 nM or above))	E (E represents a pKi value of 7 or below (Ki of 100 nM or above))	E (E represents a pKi value of 7 or below (Ki of 100 nM or above))	–	A (A represents a value of 3 or above)	B (B represents a pC50 value between 6.7 (included) and 7.5 (IC50 between 200 nM and 32 nM))
C=CC(=O)N1CCN(CCn2c(=O)ccc3cnc(Nc4cnn(CC)c4)nc32)[C@@H](C)C1 [Example 243]	B (B represents pKi value between 9 and 10 (Ki between 1 nM and 0.1 nM))	–	E (E represents a pKi value of 7 or below (Ki of 100 nM or above))	E (E represents a pKi value of 7 or below (Ki of 100 nM or above))	E (E represents a pKi value of 7 or below (Ki of 100 nM or above))	–	A (A represents a value of 3 or above)	B (B represents a pC50 value between 6.7 (included) and 7.5 (IC50 between 200 nM and 32 nM))
C=CC(=O)N1CCN(CCn2c(=O)ccc3cnc(Nc4cnn(CCN5CCOCC5)c4)nc32)[C@@H](CC)C1 [Example 244]	B (B represents pKi value between 9 and 10 (Ki between 1 nM and 0.1 nM))	–	E (E represents a pKi value of 7 or below (Ki of 100 nM or above))	E (E represents a pKi value of 7 or below (Ki of 100 nM or above))	E (E represents a pKi value of 7 or below (Ki of 100 nM or above))	–	A (A represents a value of 3 or above)	B (B represents a pC50 value between 6.7 (included) and 7.5 (IC50 between 200 nM and 32 nM))
C=CC(=O)N1CCN(CCn2c(=O)ccc3cnc(Nc4cnn(CCN5CCOCC5)c4)nc32)[C@@H](C)C1 [Example 245]	B (B represents pKi value between 9 and 10 (Ki between 1 nM and 0.1 nM))	–	E (E represents a pKi value of 7 or below (Ki of 100 nM or above))	E (E represents a pKi value of 7 or below (Ki of 100 nM or above))	E (E represents a pKi value of 7 or below (Ki of 100 nM or above))	–	A (A represents a value of 3 or above)	B (B represents a pC50 value between 6.7 (included) and 7.5 (IC50 between 200 nM and 32 nM))
